Patent US20230203043A1, “NOVEL IMIDAZOPYRAZINE DERIVATIVES” (Hoffmann-La Roche Inc., priority 2020, published 2023)
Where a name gives a salt, the structure may show the parent alone. Read-outs that look alike come from different tables or passages of the source.

System: Acinetobacter baumannii ATCC17961
Assay: Antimicrobial susceptibility testing: 90% growth inhibitory concentration (IC90) determination in Iso-Sensitest broth, OD600 growth
Assay type: cell-based
Summary of the method: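 Compounds were twofold serially diluted in DMSO across 10 points (e.g. 50 to 0.097 μM final) and inoculated at ~5×10^(5) CFU/ml. Plates incubated at 35±2° C, with OD600 read every 20 minutes over 16 h. IC90 was derived from growth inhibition during logarithmic growth.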

[1] = Acinetobacter baumannii, ATCC17961, 16 h, strain ATCC 17961, OD600 growth over 16 h, read-out: A. baumannii ATCC 17961 IC90
[2] = Acinetobacter baumannii, ATCC17961, 16 h, read-out: A. baumannii ATCC 17961 IC90 (uM), strain ATCC 17961, OD600 growth over 16 h
[3] = strain ATCC 17961, OD600 growth over 16 h, read-out: A. baumannii ATCC 17961 IC90

Row | Structure (SMILES) | IC90 [1] [µM] | IC90 [2] [µM] | further results
1 | N#CCn1cc(-c2cnc3c(Nc4ccc(C(=O)N5CCN(C(=O)[C@H]6C[C@H](N)C6)CC5)c(Cl)c4)nccn23)c(C(F)(F)F)n1 [Example 12, 2-[4-[8-[4-[4-(3-aminocyclobutanecarbonyl)piperazine-1-carbonyl]-3-chloroanilino]imidazo[1,2-a]pyrazin-3-yl]-3-(trifluoromethyl)pyrazol-1-yl]acetonitrile formate] | – | 0.176 | –
2 | Cc1cc(Nc2nccn3c(-c4cn(CC#N)nc4C(F)(F)F)cnc23)cc(F)c1C(=O)N[C@H](C)CNC(=O)C1CCNCC1 [Example 741, (R)-N-(2-(4-((3-(1-(cyanomethyl)-3-(trifluoromethyl)-1H-pyrazol-4-yl)imidazo[1,2-a]pyrazin-8-yl)amino)-2-fluoro-6-methylbenzamido)propyl)piperidine-4-carboxamide formate] | – | 0.53 | –
3 | O=C(NCC1CNC1)N1CCN(C(=O)c2ccc(Nc3nccn4c(-c5c[nH]nc5C(F)(F)F)cnc34)cc2Cl)CC1 [Example 393, N-(azetidin-3-ylmethyl)-4-[2-chloro-4-[[3-[3-(trifluoromethyl)-1H-pyrazol-4-yl]imidazo[1,2-a]pyrazin-8-yl]amino]benzoyl]piperazine-1-carboxamide formate] | – | 0.239 | –
4 | C=CCn1cc(-c2cnc3c(Nc4ccc(C(=O)N[C@@H](C)CN)c(CC)c4)nccn23)c(C(F)(F)F)n1 [Example 63, N-[(2S)-1-aminopropan-2-yl]-2-ethyl-4-[[3-[1-prop-2-enyl-3-(trifluoromethyl)pyrazol-4-yl]imidazo[1,2-a]pyrazin-8-yl]amino]benzamide] | 0.27 | – | –
5 | CCc1cc(Nc2nccn3c(-c4c[nH]nc4C(F)(F)F)cnc23)ccc1C(=O)NCCCNC(=O)[C@@H](N)CNC(=N)N [Example 13, N-[3-[[(2S)-2-amino-3-carbamimidamidopropanoyl]amino]propyl]-2-ethyl-4-[[3-[3-(trifluoromethyl)-1H-pyrazol-4-yl]imidazo[1,2-a]pyrazin-8-yl]amino]benzamide formate] | 0.166 | – | –
6 | NCCC(=O)N1CCN(C(=O)c2ccc(Nc3nccn4c(-c5c[nH]nc5C(F)(F)F)cnc34)cc2Cl)CC1 [Example 400, 3-amino-1-[4-[2-chloro-4-[[3-[3-(trifluoromethyl)-1H-pyrazol-4-yl]imidazo[1,2-a]pyrazin-8-yl]amino]benzoyl]piperazin-1-yl]propan-1-one formate] | – | 0.217 | –
7 | Cc1cc(Nc2nccn3c(-c4cn(CC#N)nc4C(F)(F)F)cnc23)ccc1C(=O)N1CCN(C(=O)N[C@H]2CNC[C@@H]2O)CC1 [Example 376, 4-[4-[[3-[1-(cyanomethyl)-3-(trifluoromethyl)pyrazol-4-yl]imidazo[1,2-a]pyrazin-8-yl]amino]-2-methylbenzoyl]-N-[(3S,4S)-4-hydroxypyrrolidin-3-yl]piperazine-1-carboxamide formate] | – | 0.43 | –
8 | O=C(N[C@@H]1CCNC1)N1CCN(C(=O)c2ccc(Nc3nccn4c(-c5c[nH]nc5C(F)(F)F)cnc34)cc2Cl)CC1 [Example 391, 4-[2-chloro-4-[[3-[3-(trifluoromethyl)-1H-pyrazol-4-yl]imidazo[1,2-a]pyrazin-8-yl]amino]benzoyl]-N-[(3R)-pyrrolidin-3-yl]piperazine-1-carboxamide formate] | – | 0.203 | –
9 | CNC(=O)c1ccc(Nc2nccn3c(-c4cn(CC5CCN(Cc6ccccc6)C5)nc4C(F)(F)F)cnc23)cc1Cl (stereo not shown) [Example 593, 4-((3-(1-((1-benzylpyrrolidin-3-yl)methyl)-3-(trifluoromethyl)-1H-pyrazol-4-yl)imidazo [1,2-a]pyrazin-8-yl)amino)-2-chloro-N-methylbenzamide formate] | – | 0.234 | –
10 | C#CCNC(=O)c1c(C)cc(Nc2nccn3c(-c4cn(CC=C)nc4C(F)(F)F)cnc23)cc1F [Example 41, 2-fluoro-6-methyl-4-[[3-[1-prop-2-enyl-3-(trifluoromethyl)pyrazol-4-yl]imidazo[1,2-a]pyrazin-8-yl]amino]-N-prop-2-ynylbenzamide] | 0.254 | – | –
11 | Cc1cc(Nc2nccn3c(-c4c[nH]nc4C(F)(F)F)cnc23)ccc1C(=O)N1CCN(C(=O)NCCCN)CC1 [Example 417, N-(3-aminopropyl)-4-[2-methyl-4-[[3-[3-(trifluoromethyl)-1H-pyrazol-4-yl]imidazo[1,2-a]pyrazin-8-yl]amino]benzoyl]piperazine-1-carboxamide formate] | – | 0.506 | –
12 | CCc1cc(Nc2nccn3c(-c4cn(CC(F)F)nc4C(F)(F)F)cnc23)ccc1C(=O)NCCOCC(C)(C)N [Example 50, N-[2-(2-amino-2-methylpropoxy)ethyl]-4-[[3-[1-(2,2-difluoroethyl)-3-(trifluoromethyl)pyrazol-4-yl]imidazo[1,2-a]pyrazin-8-yl]amino]-2-ethylbenzamide] | 0.121 | – | –
13 | N[C@@H]1CN[C@@H](C(=O)N2CCN(C(=O)c3ccc(Nc4nccn5c(-c6c[nH]nc6C(F)(F)F)cnc45)cc3Cl)CC2)C1 [Example 245, [4-[(2R,4S)-4-aminopyrrolidine-2-carbonyl]piperazin-1-yl]-[2-chloro-4-[[3-[3-(trifluoromethyl-1H-pyrazol-4-yl]imidazo[1,2-a]pyrazin-8-yl]amino]phenyl]methanone formate] | – | – | IC90 [3]: 0.45 µM
14 | Cc1cc(Nc2nccn3c(-c4cn(C)nc4C(F)(F)F)cnc23)ccc1C(=O)NCCCNC(=O)[C@@H]1C[C@@H](O)CN1 [Example 455, formic acid; (2S,4R)-4-hydroxy-N-[3-[[2-methyl-4-[[3-[1-methyl-3-(trifluoromethyl)pyrazol-4-yl]imidazo[1,2-a]pyrazin-8-yl]amino]benzoyl]amino]propyl]pyrrolidine-2-carboxamide] | – | 1.21 | –
15 | N#CCn1cc(-c2cnc3c(Nc4ccc(C(=O)N5CCN(C(=O)NCCN)CC5)c(Cl)c4)nccn23)c(C(F)(F)F)n1 [Example 258, N-(2-aminoethyl)-4-[2-chloro-4-[[3-[1-(2-cyanomethyl)-3-(trifluoromethyl)pyrazol-4-yl]imidazo[1,2-a]pyrazin-8-yl]amino]benzoyl] piperazine-1-carboxamide formate] | – | – | IC90 [3]: 0.398 µM

Continued, in another order:

Row | IC90 [1] [µM] | Structure (SMILES) | IC90 [2] [µM] | further results
16 | 0.329 | CCNC(=O)c1ccc(Nc2nccn3c(-c4cn(CCF)nc4C(F)(F)F)cnc23)cc1CC [Example 114, N,2-diethyl-4-[[3-[1-(2-fluoroethyl)-3-(trifluoromethyl)pyrazol-4-yl]imidazo[1,2-a]pyrazin-8-yl]amino]benzamide] | – | –
17 | 0.738 | NCCNC(=O)c1ccc(Nc2nccn3c(-c4c[nH]nc4C(F)(F)F)cnc23)cc1Cl [Example 363, N-(2-aminoethyl)-2-chloro-4-[[3-[3-(trifluoromethyl)-1H-pyrazol-4-yl]imidazo[1,2-a]pyrazin-8-yl]amino]benzamide] | – | –
18 | 0.395 | CCc1cc(Nc2nccn3c(-c4cn(CC#N)nc4C(F)(F)F)cnc23)ccc1C(=O)NCCNC(=O)N1CC[C@H](N)C1 [Example 577, (S)-3-amino-N-(2-(4-((3-(1-(cyanomethyl)-3-(trifluoromethyl)-1H-pyrazol-4-yl)imidazo[1,2-a]pyrazin-8-yl)amino)-2-ethylbenzamido)ethyl) pyrrolidine-1-carboxamide formate] | – | –
19 | 0.438 | CCc1cc(Nc2nccn3c(-c4c[nH]nc4C(F)(F)F)cnc23)ccc1C(=O)NCCCCCN [Example 319, N-(5-aminopentyl)-2-ethyl-4-[[3-[3-(trifluoromethyl)-1H-pyrazol-4-yl]imidazo[1,2-a]pyrazin-8-yl]amino]benzamide hydrochloride] | – | –
20 | 0.193 | N#CCn1cc(-c2cnc3c(Nc4ccc(C(=O)N5CC(O)C5)c(Cl)c4)nccn23)c(C(F)(F)F)n1 [Example 236, 2-[4-[8-[3-chloro-4-(3-hydroxyazetidine-1-carbonyl)anilino]imidazo[1,2-a]pyrazin-3-yl]-3-(trifluoromethyl)pyrazol-1-yl]acetonitrile] | – | –
21 | 1.21 | C#CCNCCCCNC(=O)c1c(C)cc(Nc2nccn3c(-c4c[nH]nc4C(F)(F)F)cnc23)cc1F [Example 783, 2-fluoro-6-methyl-N-(4-(prop-2-yn-1-ylamino)butyl)-4-((3-(3-(trifluoromethyl)-1H-pyrazol-4-yl)imidazo[1,2-a]pyrazin-8-yl)amino)benzamide] | – | –
22 | 0.354 | O=C(NC1CNC1)N1CCN(C(=O)c2ccc(Nc3nccn4c(-c5cn(CC(F)F)nc5C(F)(F)F)cnc34)cc2Cl)CC1 [Example 581, N-(azetidin-3-yl)-4-(2-chloro-4-((3-(1-(2,2-difluoroethyl)-3-(trifluoromethyl)-1H-pyrazol-4-yl)imidazo[1,2-a]pyrazin-8-yl)amino)benzoyl) piperazine-1-carboxamide formate] | – | –
23 | 0.461 | CCc1cc(Nc2nccn3c(-c4cn(CC(F)F)nc4C(F)F)cnc23)ccc1C(=O)N[C@H]1C[C@@H](N)C1 [Example 539, N-((1s,3s)-3-aminocyclobutyl)-4-((3-(1-(2,2-difluoroethyl)-3-(difluoromethyl)-1H-pyrazol-4-yl)imidazo[1,2-a]pyrazin-8-yl)amino)-2-ethylbenzamide] | – | –
24 | 0.259 | Cc1cc(Nc2nccn3c(-c4cn(CC(F)F)nc4C(F)(F)F)cnc23)cc(F)c1C(=O)N[C@H](C)CNC(=O)[C@H]1[C@@H]2CNC[C@@H]21 [Example 653, (1R,5S,6r)-N-((R)-2-(4-((3-(1-(2,2-difluoroethyl)-3-(trifluoromethyl)-1H-pyrazol-4-yl)imidazo [1,2-a]pyrazin-8-yl)amino)-2-fluoro-6-methylbenzamido)propyl)-3-azabicyclo[3.1.0]hexane-6-carboxamide] | – | –
25 | 0.435 | Cc1cc(Nc2nccn3c(-c4cn(CC#N)nc4C(F)(F)F)cnc23)cc(F)c1C(=O)N[C@H](C)CN [Example 719, (R)-N-(1-aminopropan-2-yl)-4-((3-(1-(cyanomethyl)-3-(trifluoromethyl)-1H-pyrazol-4-yl)imidazo[1,2-a]pyrazin-8-yl)amino)-2-fluoro-6-methylbenzamide] | – | –
